Data published in ChEMBL document CHEMBL2073821, “Immunohistochemical and functional characterization of pH-dependent intestinal absorption of weak organic acids by the monocarboxylic acid transporter MCT1” (J Pharm Pharmacol, 1999).
Square brackets hold non-standard residues; d marks the D form. Peptide text beside a SMILES is read from it. Sar = CNCC(=O)O

Key:
Format in all cases: functional, cell-based
Conditions in all cases: MDA-MB-231
[1] = target: T1, Monocarboxylate transporter 1 (Rattus norvegicus) (UniProt P53987); assay: TP_TRANSPORTER: uptake of Faropenem at a concentration of 76uM in MCT1-expressing MDA-MB231 cells
T1 sequence (whole entry): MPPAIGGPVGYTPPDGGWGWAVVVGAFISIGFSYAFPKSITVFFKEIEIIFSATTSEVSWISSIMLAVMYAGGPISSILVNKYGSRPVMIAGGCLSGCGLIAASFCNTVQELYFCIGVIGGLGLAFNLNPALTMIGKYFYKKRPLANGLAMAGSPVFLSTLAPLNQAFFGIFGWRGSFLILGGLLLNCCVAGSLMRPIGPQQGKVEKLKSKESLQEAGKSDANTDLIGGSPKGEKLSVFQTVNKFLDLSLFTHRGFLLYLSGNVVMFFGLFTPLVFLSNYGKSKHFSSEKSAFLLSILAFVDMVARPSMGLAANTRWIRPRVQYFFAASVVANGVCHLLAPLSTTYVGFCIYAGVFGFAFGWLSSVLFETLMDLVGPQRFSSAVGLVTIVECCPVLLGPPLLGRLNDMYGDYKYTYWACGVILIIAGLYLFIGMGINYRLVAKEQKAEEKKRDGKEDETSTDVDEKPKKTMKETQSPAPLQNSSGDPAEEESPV

[2] = target: T1, Monocarboxylate transporter 1 (Rattus norvegicus); assay: TP_TRANSPORTER: uptake of Mevalonic acid at a concentration of 67uM in MCT1-expressing MDA-MB231 cells
[3] = target: T1, Monocarboxylate transporter 1 (Rattus norvegicus); assay: TP_TRANSPORTER: uptake of Valproic acid at a concentration of 19uM in MCT1-expressing MDA-MB231 cells
[4] = target: T1, Monocarboxylate transporter 1 (Rattus norvegicus); assay: TP_TRANSPORTER: uptake of D-Lactic Acid at a concentration of 3uM in MCT1-expressing MDA-MB231 cells
[5] = target: T1, Monocarboxylate transporter 1 (Rattus norvegicus); assay: TP_TRANSPORTER: uptake of Glycylsarcosine at a concentration of 17uM in MCT1-expressing MDA-MB231 cells
[6] = target: T1, Monocarboxylate transporter 1 (Rattus norvegicus); assay: TP_TRANSPORTER: uptake of P-Aminohippuric acid at a concentration of 9uM in MCT1-expressing MDA-MB231 cells
[7] = target: T1, Monocarboxylate transporter 1 (Rattus norvegicus); assay: TP_TRANSPORTER: uptake of Propionic acid at a concentration of 7uM in MCT1-expressing MDA-MB231 cells
[8] = target: T1, Monocarboxylate transporter 1 (Rattus norvegicus); assay: TP_TRANSPORTER: uptake of Methotrexate at a concentration of 0.03uM in MCT1-expressing MDA-MB231 cells
[9] = target: T1, Monocarboxylate transporter 1 (Rattus norvegicus); assay: TP_TRANSPORTER: uptake of Foscarnet at a concentration of 3uM in MCT1-expressing MDA-MB231 cells
[10] = target: T1, Monocarboxylate transporter 1 (Rattus norvegicus); assay: TP_TRANSPORTER: uptake of Glutamic acid at a concentration of 0.01uM in MCT1-expressing MDA-MB231 cells
[11] = target: T1, Monocarboxylate transporter 1 (Rattus norvegicus); assay: TP_TRANSPORTER: uptake of Butyric acid at a concentration of 137uM in MCT1-expressing MDA-MB231 cells

C[C@@H](O)[C@H]1C(=O)N2C(C(=O)O)=C([C@H]3CCCO3)S[C@H]12
Activity [1]: is not a substrate [-]

C[C@@](O)(CCO)CC(=O)O
Activity [2]: is not a substrate [-]

CCCC(CCC)C(=O)O
Activity [3]: is not a substrate [-]

C[C@@H](O)C(=O)O
Activity [4]: substrate [+]

CN(CC(=O)O)C(=O)CN (H-Gly-[Sar]-OH)
Activity [5]: is not a substrate [-]

Nc1ccc(C(=O)NCC(=O)O)cc1
Activity [6]: is not a substrate [-]

CCC(=O)O
Activity [7]: substrate [+]

CN(Cc1cnc2nc(N)nc(N)c2n1)c1ccc(C(=O)N[C@@H](CCC(=O)O)C(=O)O)cc1
Activity [8]: is not a substrate [-]

O=C(O)P(=O)(O)O
Activity [9]: substrate [+]

N[C@@H](CCC(=O)O)C(=O)O
Activity [10]: is not a substrate [-]

CCCC(=O)O
Activity [11]: substrate [+]
